Experimental data from paper PMC4595804, “A strategy to discover decoy chemokine ligands with an anti-inflammatory activity” (Scientific Reports, 2015).

Tests used:
Type in all cases: cell-based
mouse CCL22 = target: T1, mouse CCL22 (Mus musculus, UniProt O88430); experiment: Calcium responses induced by mouse CCL22, neutraligand protocol, CCR4+Gqi5+ HEK cells; settings: 5 nM mouse CCL22 preincubated 1 h with compound; read-out: IC50, inhibition of mouse CCL22-evoked calcium responses
T1 construct: purchased R&D systems
T1 sequence (O88430 25-92): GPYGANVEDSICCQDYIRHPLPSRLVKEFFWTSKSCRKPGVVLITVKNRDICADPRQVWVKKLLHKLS
Method: (§1) Dye loaded cells were placed in the FlexStation 3 (Molecular Devices). Calcium mobilization was measured at 401 and 475 nm emission fluorescence after excitation at 355 nm. For the primary screening, the ligands (50μl of chemokine mixed with DMSO or test compounds) were added to the cells at 40 s, followed by digitonin addition (50μl) at 100 s to the cells. Molecules were screened at a final concentration of 2μg/ml with 5 nM CCL17 or CCL22. […] Raw fluorescence data (at 401 and 475 nm) were exported and the ratio 401/475 was calculated. The calcium response values (height of peak response over baseline) were determined. Hits were selected by comparing the response amplitude at the time of the chemokine addition ± test compound. The Z’ factor[29] was calculated according to the following equation: Z’ = 1-(3SD+ + 3SD−)/|Ave+ − Ave−|, where SD+ and Ave+ are respectively the standard deviation and the mean value of the positive controls (chemokine + DMSO), while SD− and Ave− are respectively the standard deviation and the mean value of the negative controls (HEPES-BSA (0.1%) mixed with DMSO, or cells mixed with C-021). Hit molecules were confirmed by performing concentration-response curves and their half maximal inhibitory concentration (IC50) values were calculated using the Kaleidagraph software. […]
(§2) neutraligand. Human (○) or mouse (●) CCL17 (5nM) was preincubated with increasing […]

CCL2 = target: T2, CCL2 (Homo sapiens, UniProt P13500); experiment: Selectivity, neutraligand protocol, EGFP-CCR2+ HEK cells; settings: 10 μM compound, 5 nM CCL2, EGFP-CCR2+ HEK cells
T2 construct: purchased R&D systems
T2 sequence (P13500 24-99): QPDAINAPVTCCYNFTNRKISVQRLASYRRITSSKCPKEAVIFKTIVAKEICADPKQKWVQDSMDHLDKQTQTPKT
Method: Figure 6 (a) Selectivity of CCL17 and CCL22 neutraligands towards 10 chemokines according to the “neutraligand protocol”. […] Each column represents the mean (block) ± SD (bars) of n = 3 experiments performed in triplicate. *p < 0.05; **p < 0.01; ***p < 0.005 as compared to chemokine + DMSO. (b) Chemokine neutraligands inhibited CCR4 endocytosis induced by CCL22 or CCL17. EGFP-CCR4^+ HEK cells were incubated for 30 min with DMSO or chemokine (100 nM CCL22 or CCL17) in the presence or absence of test compounds. […] Cell surface EGFP-tagged CCR4 receptors were measured by EGFP antibody labeling and flow cytometry analysis. CCR4 internalization was expressed as a percentage of total receptor surface expression calculated using control cells incubated with DMSO (100%). […] The number of migrating cells in the presence of chemokine and compounds were expressed as the corresponding percentages. Results were analyzed by fitting the experimental curves (% of migrating cells vs log compound concentration) using the Kaleidagraph software program, and the corresponding IC50 values were calculated. […]
Dye loaded cells were placed in the FlexStation 3 (Molecular Devices). Calcium mobilization was measured at 401 and 475 nm emission fluorescence after excitation at 355 nm. […] Raw fluorescence data (at 401 and 475 nm) were exported and the ratio 401/475 was calculated. […]

mouse CCL17 = target: T3, mouse CCL17 (Mus musculus, UniProt Q9WUZ6); experiment: Calcium responses induced by mouse CCL17, neutraligand protocol, CCR4+Gqi5+ HEK cells; settings: 5 nM mouse CCL17 preincubated 1 h with compound; read-out: IC50, inhibition of mouse CCL17-evoked calcium signaling
T3 construct: purchased R&D systems
T3 sequence (Q9WUZ6 24-93): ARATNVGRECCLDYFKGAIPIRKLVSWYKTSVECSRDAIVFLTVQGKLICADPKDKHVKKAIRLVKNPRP
Method: as §1, §2

| IC50 (mouse CCL22) [µM] | effect on calcium responses induced by CCL2 (CCL2) | SMILES | IC50 (mouse CCL17) [µM] |
| --- | --- | --- | --- |
| 8.1 ± 1.5 | no effect | O=C(OCC(O)CO)c1ccccc1O (stereo not drawn) [GPN136, 2,3-dihydroxypropyl 2-hydroxybenzoate] | – |
| – | – | CC(C)=CCn1cnc2c1c(=O)n(C)c(=O)n2C [GPN279, 1,3-dimethyl-7-(3-methylbut-2-enyl)-1H-purine-2,6(3H, 7H)-dione] | 5.2 ± 0.9 |
